According to patent publication US20130184202A1, “Peptide Inhibitors and Methods of Use Thereof” (priority 2011, published 2013):

Assays:
[1] = test system: RAW cells; test: iNOS and IL-1β mRNA expression by RT-PCR after BAL treatment; assay type: cell-based; conditions: RAW cells treated with SNO-OE-BAL in the presence of the NF-κB inhibitor
Experimental: RAW cells were treated with BAL prepared from overexpressing mice, either with or without prior transnitrosation with L-SNOC.
RAW cells were treated with OE-BAL or SNO-OE-BAL in the presence and absence of the NF-κB inhibitor caffeic acid phenethyl ester (CAPE).

[2] = biological target: T1, SP-D multimer (Rattus norvegicus, UniProt P35248); test: SP-D multimer disruption, native gel electrophoresis and Western blot; assay type: biochemical; conditions: for disruption of the SP-D multimer: RrSP-D, 25 mM, 37° C., 20 minutes, native gel
T1 sequence (P35248 20-374): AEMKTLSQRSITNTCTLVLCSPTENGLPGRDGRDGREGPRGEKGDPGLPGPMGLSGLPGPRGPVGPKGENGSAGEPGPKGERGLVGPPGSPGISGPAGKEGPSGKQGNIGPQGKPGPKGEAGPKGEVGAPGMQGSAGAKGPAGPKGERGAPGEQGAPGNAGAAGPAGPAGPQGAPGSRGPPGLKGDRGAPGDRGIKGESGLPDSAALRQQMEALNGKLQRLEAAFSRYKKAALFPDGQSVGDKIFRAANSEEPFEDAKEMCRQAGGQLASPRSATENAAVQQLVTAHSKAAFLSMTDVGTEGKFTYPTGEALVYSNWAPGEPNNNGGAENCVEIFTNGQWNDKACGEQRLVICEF

[3] = biological target: T2, RrSP-D (Rattus norvegicus, UniProt P35248); test: SP-D trimer/structure disruption, SDS-PAGE and Western blot; assay type: biochemical; conditions: for disruption of SP-D structure (specificity): 50 ng RrSP-D, equimolar concentration, non-reducing denaturing SDS-PAGE
T2 sequence (P35248 20-374): T1 sequence (P35248 20-374)
Experimental: FIG. 12A provides a hydrophobicity plot of the designed peptide CJ-1 (SEQ ID NO: 1). CJ-1 was directly derived from SP-D sequence within which cysteine residues are located in the hydrophobic pocket. RrSP-D (50 ng) was incubated with or without CJ-1 (10 mM) or DTT (10 mM) at 37° C. for 20 minutes (FIG. 12B). […] RrSP-D (50 ng) was incubated with different doses of CJ-1 (0.01-10 mM) at 37° C. for 20 minutes.
By matching the reduced cysteines within the peptide to those in the target protein one can specifically disrupt structure. Using 50 ng of RrSP-D the effect of an equimolar concentration of CJ-1, targeted peptide; CJ-2, a scrambled version of CJ-1 with no hydrophobic pocket; or L-cysteine was analyzed. Following incubation SP-D structure was assessed by non-reducing denaturing SDS-PAGE.

[4] = test system: RAW 264.7 cells; test: Real-time qPCR of pro-inflammatory mediator mRNA (IL-1β, iNOS, ptgs2, CCL2); assay type: cell-based; conditions: 10 μM, 3 hours, without LPS
Experimental: Raw 264.7 cells were incubated with or without CJ-1 (10 μM) or SNO-CJ-1 (10 μM) for 3 hours (FIG. 17A) or incubated with or without CJ-1 (10 μM) or SNO-CJ-1 (10 μM) for 20 minutes and treated with LPS (1 ng/mL) for an additional 3 hours (FIG. 17B). The cells were lysed and total RNA was isolated and subjected to real-time qPCR for mRNA expression of IL-1β, iNOS, ptgs2 and CCL2. SNO-CJ-1 inhibits mRNA expression of pro-inflammatory mediators.

[5] = biological target: T3, SNO-SP-D (Rattus norvegicus, UniProt P35248); test: Biotin-Switch analysis of SNO-SP-D content; assay type: biochemical; conditions: NO-treated RrSP-D incubated with 1 μM or 10 μM
T3 sequence (P35248 20-374): T1 sequence (P35248 20-374)
Experimental: (§1) RrSP-D was incubated with 100 μM of nitric oxide for 30 minutes to generate SNO-SP-D (FIG. 14A). The resultant protein was incubated with CJ-1 (1 μM or 10 μM). The protein samples were subjected to Biotin-Switch analysis to determine SNO-SP-D content. Lane 1 untreated RrSP-D; Lane 2 NO-treated RrSP-D; Lane 3 NO-treated RrSP-D+1 μM CJ-1; Lane 4 NO-treated RrSP-D+10 μM CJ-1. […] The chemoattractive activity to RAW 264.7 cells was assayed using a Boydin Chamber.

[6] = test system: RAW 264.7 cells; test: Chemotactic activity, Boydin Chamber; assay type: cell-based; conditions: SNO-SP-D samples treated with 1 μM or 10 μM
Experimental: as §1

[7] = biological target: HIV gp120 LAV (Human immunodeficiency virus type 1 group M subtype B, UniProt P03377); conditions: preincubated, denatured, SDS PAGE, Coomassie blue
Experimental: Peptides were designed to disrupt HIV gp120 formation. […] HIV gp120 LAV preincubated without (lane 1) or with DTT (lane 2), L-cysteine (lane 3), CJ-3 (lane 4) CJ-4 (lane 5) or CJ-3 and CJ-4 (lane 6) was denatured and subjected to SDS PAGE gel electrophoresis. The resulted proteins were visualized by Coomassie blue staining (FIG. 15C).

[8] = test system: HIV X4 strain NL4-3; test: HIV reverse transcriptase (RT) assay in supernatants of infected Jurkat T cells; assay type: cell-based; conditions: NL4-3 preincubated 1 hour at 37° C.; Jurkat T cells infected 16 hours; supernatants day 6 postinfection
Experimental: The HIV X4 strain NL4-3 was preincubated without (control) or with peptide CJ-2 which was a peptide with two cysteines in the hydrophilic domain, peptide CJ-3 which was derived from gp120, or peptide CJ-4 which was derived from gp41 for 1 hour at 37° C. at the concentrations indicated. The Jurkat T cells (0.5×10^6 cell/ml) were infected by NL4-3 (30 ng/ml) for 16 hours and washed. The supernatants at day 6 postinfection was collected and subjected to HIV reverse transcriptase (RT) assay. The data are shown represent the mean±SD of duplicate cultures (FIG. 15D).

Row | Compound | disruption of the SP-D multimer [2] | disruption of SP-D structure (specificity) [3] | disruption of the structure of HIV gp120 LAV [7] | inhibition of HIV (RT activity in supernatants) [8] | also measured
1 | O=C(/C=C/c1ccc(O)c(O)c1)OCCc1ccccc1 [CAPE, caffeic acid phenethyl ester] | – | – | – | – | effect on SNO-OE-BAL mediated increase in iNOS expression [1]: completely abrogated the increase in iNOS expression
2 | N[C@@H](CSN=O)C(=O)O [L-SNOC, L-S-nitroso-cysteine] | capable of disrupting the SP-D multimer at high concentration | – | – | – | disruption of native SP-D multimers ([2]; BAL from SP-D overexpressing mice or 0.2 μM recombinant SP-D treated with L-SNOC, native electrophoresis, Western blot): disruption of the native multimers to dodecamers and trimers
3 | N[C@@H](CS)C(=O)O [L-cysteine, reference compound] | capable of disrupting the SP-D multimer at high concentration | Only CJ-1 is capable of disrupting SP-D structure | – | – | –
4 | AEMKSLSQRSVPNTCTLVMCSPTE [CJ-1] | – | capable of disrupting SP-D structure | – | – | induction of transcription of inflammatory genes [4]: capable of inducing transcription of inflammatory genes within macrophages; SNO-SP-D content (S-nitrosothiol) [5]: depleted S-nitrosothiol from SNO-SP-D; disruption of SP-D, dose dependence ([3]; RrSP-D 50 ng, 0.01-10 mM, 37° C., 20 minutes): disrupts SP-D in a dose-dependent manner; disruption of SP-D trimers ([3]; RrSP-D 50 ng, 10 mM, 37° C., 20 minutes, SDS PAGE, Western blot): disrupts SP-D trimers; SNO-SP-D induced RAW 264.7 cell migration [6]: inhibits the ability of SNO-SP-D to induce RAW 264.7 cell migration
5 | LVWEDLRNLCLFSYRLLR [CJ-4, peptide derived from gp41] | – | – | disrupted the structure of HIV gp120 LAV | inhibited HIV | –
6 | VPVWKDAETTLFCASDAK [CJ-3, peptide derived from gp120] | – | – | disrupted the structure of HIV gp120 LAV | inhibited HIV | –
